Source: patent US20230203126A1, “A COMPOSITION COMPRISING S-ARRESTIN PEPTIDES” (WORG PHARMACEUTICALS (HANGZHOU) CO., LTD., priority 2019, published 2023)
No end group written: not given here.

Assays:
[1] = target: HLA-DRA1*0101, DRB1*1501 (DR2) (Homo sapiens, UniProt P01903+P01911); assay: DR2
Description: Table printed on a drawing sheet, Figure 9
The patent's description of the figure: FIG. 9: Diverse patterns of in vitro peptide-MHC II binding for peptides 9K1, 17JK and 15N3K. Binding of peptides 9K1, 17JK and 15N3K to recombinant HLA-DRA1*0101, DRB1*0101 (DR1), DRB1*1501 (DR2), DRB1*0301 (DR3), DRB1*0401 (DR4), DRB1*1101 (DR11), DRB1*0405 (DR4*05) and DRB1*0901 (DR9) was assessed in vitro. IC50 values (µM) are presented and colour-coded per HLA-DR molecule. Low values (green) indicate strong binding, high values (red) indicate low(er) binding.
FIG. 9 depicts IC50 (µM) values of peptides 9K1K, 17JK and 15N3K binding to the indicated HLA-DR molecules and competing with a known competitor peptide. Values should be compared only within each HLA-DR molecule. Low IC50 values (green) indicate the strongest binder per HLA-DR molecule. Highest values per HLA-DR molecule (red) are indicative of the lowest binder for that HLA-DR molecule. Intermediate values are indicated in orange. […]
First copying reader's note: The sheet prints no unit; per the patent description the values are IC50 (µM) for peptide binding to the named HLA-DR molecules, with cell shading coding relative binding strength per HLA-DR molecule.
Where the first naming reader finds the target: description_of_the_figure: recombinant HLA-DRA1*0101, DRB1*0101 (DR1), DRB1*1501 (DR2)

[2] = tested on: MHC II molecules on dendritic cells (CD11c+ cells); assay: In vivo MHC class II loading assay (DR2tg mice); parameters: species or system HLA-DR2-transgenic mice; details: 100 µg peptide s.c., spleen 2 h post injection, 72 h co-culture, vs PBS-injected control
Description: FIG. 1: Peptide 9K1K is correctly loaded on MHC class II in vivo. Response of peptide-specific CD4+ T cells towards peptide loaded in vivo on dendritic cells is shown. HLA-DR2-transgenic mice were injected subcutaneously with 100 µg of 9K1K peptide. 2 h post injection, spleens were dissected and CD11 c+ cells (dendritic cells) were isolated. These CD11c+ cells were co-cultured with peptide-specific CD4+ cells for 72 h at 37° C. IFNy was measured in the supernatant of these cultures to evaluate the response to peptide by the CD4+ T cells. (* p<0.05 Mann-Whitney U-test)
When 100 µg of peptide 9K1K was injected in DR2tg mice or when peptide 17JK or 15N3K was injected in DR3tg mice, these peptides could be detected on dendritic cells (CD11c+ cells) in the spleens of these mice 2 h post injection. Activation (IFNY production) of peptide-specific CD4+ T cells by the isolated CD11 c+ cells was used as a read-out. […]
DR3tg or DR2tg mice were injected with 100 µg of peptide in 100 µl PBS subcutaneously (s.c.) in the flank. […] After 72 hours, supernatant of these co-cultures was collected and CD4+ T cell activation was analysed by IFNy ELISA (R&D Systems, Abingdon, UK). In a parallel experiment, CD4+ T cell responses towards peptide added in vitro were assessed to make sure the T cells recognize the peptides presented by the CD11 c+ cells.

[3] = tested on: S-Ag-induced cell activation (IFNy production of LN cells and splenocytes); assay: Ex vivo tolerization experiment (DR2tg mice); format: in vivo
Description: FIG. 4: 9K1K alone induces tolerance towards S-Ag protein in DR2tg mice. Mice were injected subcutaneously in the flank with 0,1 µg/ml, 1 µg/ml and 10 µg/ml 9K1K on days -15, -13 and -11, followed by 3 injections of 100 µg/ml on days -8, -6 and -4 (escalating dose regime). On day 0, mice were immunized subcutaneously at the base of the tail with antigen/CFA. Mice were sacrificed 10 days after immunization to measure activation of LN cells and splenocytes upon S-Ag restimulation. IFNy concentration was measured in the culture supernatant as an indication of cell activation. Data represent mean ± SEM of the concentration of IFNy for the PBS-treated mice (black lines) and 9K1K-treated mice (grey lines). Two-way ANOVA was used to measure overall treatment effects on T cell activation. Dunnett’s multiple comparisons test was used and significant differences are indicated in the graphs (** p<0.01; **** p<0.0001). The % inhibition of IFNy production as compared to the control group is indicated in the graphs. (A) Tolerization against S-Ag in LN. IFNy production expressed as IFNy concentration (pg/ml). (B) Tolerization against S-Ag in spleen. IFNy production expressed as IFN-Y concentration (pg/ml). LN, lymph nodes. Data representative of 3 independent experiments.
FIG. 8: Treatment with peptide cocktail ATX975 reduces S-Ag-induced immune cell activation in DR2tg mice more efficiently than treatment with 9K1K alone. Mice were injected subcutaneously in the flank with 0.015 nmol, 0.15 nmol and 1.5 nmol of peptide on days -15, -13 and -11 respectively, followed by 3 injections of 15 nmol peptide on days -8, -6 and -4 (dose escalation schedule). For treatment with the cocktail (ATX975) containing 3 peptides, these doses were given per peptide (reaching a total top dose of 45 nmol peptide). On day 0, mice were immunized subcutaneously at the base of the tail with antigen/CFA. Mice were sacrificed 10 days after immunization to measure activation of splenocytes upon S-Ag restimulation. […] IFN-y production expressed as IFN-y concentration (pg/ml). […]

## KKKAFVEQVANVVLKKK-NH2 [9K1K, KKKAFVEQVANVVLKKK]
[1]
  IC50: 520 nM
[2]
  CD4+ T cell activation (IFNy) by CD11c+ cells isolated from spleen of injected mice: significant CD4+ T cell activation
[3]; dose escalation to 15 nmol per peptide s.c., cocktail vs single peptide, vs control mice (FIG. 8)
  reduction of S-Ag-induced cell activation (IFNy) in spleens: 51%
[3]; single peptide escalating dose s.c., vs PBS, 10 days after immunization (FIG. 4A)
  reduction of S-Ag-induced cell activation (IFNy) in lymph nodes: 77%
[3]; single peptide escalating dose s.c., vs PBS, 10 days after immunization (FIG. 4B)
  reduction of S-Ag-induced cell activation (IFNy) in spleen: 70%
